The source of these data is US20160137639A1, “TRIAZOLE-ISOXAZOLE COMPOUND AND MEDICAL USE THEREOF” (JAPAN TOBACCO INC., priority 2012, published 2016).

The target in one experiment is T1, mouse RORγ (Mus musculus, UniProt P51450).
T1 construct: mouse, NM_011281.2 and from Ile251 to Lys516; expressed in transfected cells; host or cells: CHO cells (transient co-transfection with pG5-Luc reporter)
T1 sequence (P51450 251-516): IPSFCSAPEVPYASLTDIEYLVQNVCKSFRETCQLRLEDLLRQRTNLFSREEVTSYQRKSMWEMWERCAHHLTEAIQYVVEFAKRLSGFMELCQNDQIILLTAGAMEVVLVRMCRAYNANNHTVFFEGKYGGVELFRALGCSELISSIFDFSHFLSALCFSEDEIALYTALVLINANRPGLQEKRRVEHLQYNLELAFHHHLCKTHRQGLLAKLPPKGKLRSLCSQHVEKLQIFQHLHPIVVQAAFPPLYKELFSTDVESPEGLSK
The experiment can be described thus: Luciferase reporter gene assay of inhibitory effect against RORγ transcriptional activity (GAL4-mRORγ plasmid in CHO cells). In kind it is cell-based. To be noted: read-out: LUC EC50 (μM) mRORg. An outline of the steps:
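Readout is intracellular luciferase after 2-day compound exposure (8 concentrations, 0.1% DMSO) in CHO cells expressing GAL4 fused to mouse RORγ LBD residues Ile251–Lys516 plus pG5-Luc reporter. EC50 fitted from %-of-control; points showing resazurin-detected cytotoxicity dropped.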
(In a reporter assay the amount or activity of a reporter protein is the signal.)

The target in a further experiment is T2, human RORγ (Homo sapiens, UniProt P51449).
T2 construct: human, NM_005060.3 and from Ser253 to Lys518; expressed in transfected cells; host or cells: CHO cells (transient co-transfection with pG5-Luc reporter)
T2 sequence (P51449 253-518): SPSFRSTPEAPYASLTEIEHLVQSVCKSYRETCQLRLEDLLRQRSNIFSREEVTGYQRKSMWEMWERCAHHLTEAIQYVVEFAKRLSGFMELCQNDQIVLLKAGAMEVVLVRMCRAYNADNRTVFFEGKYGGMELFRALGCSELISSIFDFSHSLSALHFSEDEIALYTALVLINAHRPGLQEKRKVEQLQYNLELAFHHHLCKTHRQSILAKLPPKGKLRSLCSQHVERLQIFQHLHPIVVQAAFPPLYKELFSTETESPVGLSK
The experiment can be described thus: Luciferase reporter gene assay of inhibitory effect against RORγ transcriptional activity (GAL4-hRORγ plasmid in CHO cells). In kind it is cell-based. Conditions: read-out: LUC EC50 (μM) hRORg.

SMILES strings stand for the structures.

On to `Cc1ccc(NC(=O)[C@H]2CCCN(C(=O)CO)[C@@H]2c2nnc(CCCC(C)(C)C)n2C2CC2)c(C)c1` [Example F-308], for which the 50% effective concentration (EC50) on mouse RORγ and at human RORγ was less than 3 µM in each case.

As to `Cc1ccc(NC(=O)[C@H]2CCCN[C@@H]2c2nnc(CCCC(C)(C)C)n2C2CC2)c(C)c1` [Example F-309], the EC50 at mouse RORγ and on human RORγ was less than 3 µM in each case.

For the molecule `Cc1ccc(NC(=O)[C@H]2CCCN(C)[C@@H]2c2nnc(CCCC(C)(C)C)n2C2CC2)c(C)c1` [Example F-310], the EC50 on mouse RORγ and on human RORγ was less than 3 µM throughout.

As to `COc1cc(C)ccc1CNC(=O)C[C@H](NC(C)=O)c1nnc(CCCC(C)C)n1C1CC1` [Example F-312], the EC50 at mouse RORγ and on human RORγ was more than 3 µM in each case.

`Cc1ccc(NC(=O)C[C@@H](CCO)c2nnc(CCCC(C)C)n2C2CC2)c(C)c1` [Example F-313]: the EC50 at mouse RORγ and on human RORγ was more than 3 µM each time.

As for `Cc1ccc(NC(=O)C[C@H](CCO)c2nnc(CCCC(C)C)n2C2CC2)c(C)c1` [Example F-314], the half-maximal effective concentration (EC50) at mouse RORγ and at human RORγ was less than 3 µM each time.

On to `CC(=O)N1C[C@H](C(=O)Nc2ccc(C)cc2C)[C@@H](c2nnc(CCCC(C)C)n2C2CC2)C1` [Example F-315], for which the EC50 at mouse RORγ and at human RORγ was less than 3 µM in each case.

For the molecule `CC(=O)N1C[C@@H](C(=O)Nc2ccc(C)cc2C)[C@H](c2nnc(CCCC(C)C)n2C2CC2)C1` [Example F-316], the EC50 at mouse RORγ and on human RORγ was more than 3 µM throughout.

With `Cc1ccc(NC(=O)CCc2nnc(-c3ccc(C(C)C)cc3)n2C2CC2)c(C)c1` [Example F-320], the EC50 on mouse RORγ and at human RORγ was less than 3 µM in each case.

Consider `Cc1ccc(NC(=O)[C@H]2CCC(=O)N(C)[C@@H]2c2nnc(CCCC(C)(C)C)n2C2CC2)c(C)c1` [Example F-322], for which the EC50 at mouse RORγ and on human RORγ was less than 3 µM throughout.

With `COc1cc(C)ccc1CNC(=O)[C@H]1CCC(=O)N(C)[C@@H]1c1nnc(CCCC(C)(C)C)n1C1CC1` [Example F-323], the EC50 on mouse RORγ and at human RORγ was less than 3 µM throughout.

For `Cc1ccc(NC(=O)C[C@@H](CCO)c2nnc(CCCC(C)(C)C)n2C2CC2)c(C)c1` [Example F-326], the EC50 at mouse RORγ and at human RORγ was more than 3 µM throughout.

For `Cc1ccc(NC(=O)C[C@H](CCO)c2nnc(CCCC(C)(C)C)n2C2CC2)c(C)c1` [Example F-327], the EC50 on mouse RORγ and at human RORγ was less than 3 µM each time.

As to `CC(=O)N1C[C@H](C(=O)Nc2ccc(C)cc2C)[C@@H](c2nnc([C@H]3C[C@H](OC(C)C)C3)n2C2CC2)C1` [Example F-334], the EC50 on mouse RORγ and at human RORγ was less than 3 µM each time.

Turning to `CC(=O)N1C[C@@H](C(=O)Nc2ccc(C)cc2C)[C@H](c2nnc([C@H]3C[C@H](OC(C)C)C3)n2C2CC2)C1` [Example F-335], the EC50 at mouse RORγ and at human RORγ was more than 3 µM in each case.

As for `CC(=O)N1C[C@H](C(=O)Nc2ccc(C)cc2C)[C@@H](c2nnc([C@H]3C[C@@H](OC(C)C)C3)n2C2CC2)C1` [Example F-336], the EC50 at mouse RORγ and at human RORγ was more than 3 µM each time.

Regarding `CC(=O)N1C[C@@H](C(=O)Nc2ccc(C)cc2C)[C@H](c2nnc([C@H]3C[C@@H](OC(C)C)C3)n2C2CC2)C1` [Example F-337], the EC50 at mouse RORγ and at human RORγ was more than 3 µM in each case.

As for `CC(=O)N1C[C@H](C(=O)Nc2ccc(C)cc2C)[C@@H](c2nnc(CCCC(C)(C)C)n2C2CC2)C1` [Example F-338], the concentration giving a half-maximal response (EC50) at mouse RORγ and on human RORγ was less than 3 µM each time.

Turning to `CC(=O)N1C[C@@H](C(=O)Nc2ccc(C)cc2C)[C@H](c2nnc(CCCC(C)(C)C)n2C2CC2)C1` [Example F-339], the EC50 on mouse RORγ and at human RORγ was more than 3 µM in each case.

As to `Cc1ccc(NC(=O)C[C@@H](C[C@H](O)CO)c2nnc(CCCC(C)C)n2C2CC2)c(C)c1` [Example F-342], the EC50 on mouse RORγ and at human RORγ was more than 3 µM throughout.

Regarding `Cc1ccc(NC(=O)C[C@H](C[C@H](O)CO)c2nnc(CCCC(C)C)n2C2CC2)c(C)c1` [Example F-343], the concentration for a half-maximal effect (EC50) at mouse RORγ and on human RORγ was less than 3 µM in each case.

`CC(=O)N[C@@H](CC(=O)Nc1ccc(C)cc1C)c1nnc(CCCC(C)(C)C)n1C1CC1` [Example F-344]: the EC50 on mouse RORγ and at human RORγ was less than 3 µM each time.

For the molecule `Cc1ccc(NC(=O)C[C@@H](c2nnc(CCCC(C)(C)C)n2C2CC2)N(C)C(=O)OCc2ccccc2)c(C)c1` [Example F-352], the EC50 at mouse RORγ and at human RORγ was more than 3 µM each time.

Consider `CN[C@@H](CC(=O)Nc1ccc(C)cc1C)c1nnc(CCCC(C)(C)C)n1C1CC1` [Example F-353], for which the EC50 on mouse RORγ and at human RORγ was less than 3 µM each time.

As for `CC(=O)N(C)[C@@H](CC(=O)Nc1ccc(C)cc1C)c1nnc(CCCC(C)(C)C)n1C1CC1` [Example F-354], the EC50 at mouse RORγ and on human RORγ was less than 3 µM each time.

Take `Cc1ccc(NC(=O)C[C@H](NC(=O)OCc2ccccc2)c2nnc(CCCC(C)(C)C)n2C2CC2)c(C)c1` [Example F-355]: the EC50 on mouse RORγ and at human RORγ was less than 3 µM throughout.

As to `Cc1ccc(NC(=O)CCc2nnc([C@H]3C[C@H](CC(C)C)C3)n2C2CC2)c(C)c1` [Example F-357], the EC50 at mouse RORγ and on human RORγ was less than 3 µM throughout.

For the molecule `Cc1ccc(NC(=O)CCc2nnc([C@H]3C[C@@H](CC(C)C)C3)n2C2CC2)c(C)c1` [Example F-358], the EC50 at mouse RORγ and at human RORγ was less than 3 µM each time.

As to `Cc1ccc(NC(=O)C[C@H](N)c2nnc(CCCC(C)(C)C)n2C2CC2)c(C)c1` [Example F-359], the EC50 at mouse RORγ and on human RORγ was less than 3 µM throughout.

As to `Cc1ccc(NC(=O)C[C@@H](CCO)c2nnc([C@H]3C[C@@H](CC(C)C)C3)n2C2CC2)c(C)c1` [Example F-360], the EC50 on mouse RORγ and on human RORγ was more than 3 µM throughout.

Take `Cc1ccc(NC(=O)C[C@H](CCO)c2nnc([C@H]3C[C@@H](CC(C)C)C3)n2C2CC2)c(C)c1` [Example F-361]: the EC50 at mouse RORγ and on human RORγ was less than 3 µM each time.

With `CCn1c(CCCC(C)(C)C)nnc1[C@@H]1[C@@H](C(=O)Nc2ccc(C)cc2C)CCN1C(C)=O` [Example F-369], the concentration for a half-maximal effect (EC50) at mouse RORγ and at human RORγ was less than 3 µM throughout.

Regarding `CCn1c(CCCC(C)(C)C)nnc1[C@@H]1[C@@H](C(=O)NCc2ccc(C)cc2OC)CCN1C(C)=O` [Example F-370], the EC50 on mouse RORγ and at human RORγ was less than 3 µM each time.

As to `CC(=O)N1C[C@H](C(=O)Nc2ccc(C)cc2C)[C@@H](c2nnc(-c3ccc(C(C)C)cc3)n2C2CC2)C1` [Example F-371], the EC50 on mouse RORγ and at human RORγ was less than 3 µM in each case.

As for `CC(=O)N1C[C@@H](C(=O)Nc2ccc(C)cc2C)[C@H](c2nnc(-c3ccc(C(C)C)cc3)n2C2CC2)C1` [Example F-372], the EC50 on mouse RORγ and on human RORγ was more than 3 µM each time.

With `CC(=O)N1C[C@H](C(=O)Nc2ccc(C)cc2C)[C@@H](c2nnc(CCC3CCCCC3)n2C2CC2)C1` [Example F-374], the EC50 on mouse RORγ and at human RORγ was less than 3 µM in each case.

For `CC(=O)N1C[C@@H](C(=O)Nc2ccc(C)cc2C)[C@H](c2nnc(CCC3CCCCC3)n2C2CC2)C1` [Example F-375], the EC50 at mouse RORγ and at human RORγ was more than 3 µM in each case.

In the case of `Cc1ccc(NC(=O)C[C@@H](CCO)c2nnc(CCCC(C)(C)C)n2CC(F)(F)F)c(C)c1` [Example F-379], the 50% effective concentration (EC50) (in general, the concentration at which the effect is half-maximal) on mouse RORγ was less than 3 µM; at human RORγ it was more than 3 µM.

Turning to `Cc1ccc(NC(=O)C[C@H](CCO)c2nnc(CCCC(C)(C)C)n2CC(F)(F)F)c(C)c1` [Example F-380], the EC50 at mouse RORγ and at human RORγ was less than 3 µM in each case.

On to `C=CC[C@H](CC(=O)Nc1ccc(C)cc1C)c1nnc(CCCC(C)(C)C)n1C1CC1` [Example F-381], for which the 50% effective concentration (EC50) was less than 3 µM on mouse RORγ and more than 3 µM on human RORγ.

On to `Cc1ccc(NC(=O)C[C@@H](CCO)c2nnc(CCC3CCCCC3)n2C2CC2)c(C)c1` [Example F-384], for which the EC50 on mouse RORγ and at human RORγ was more than 3 µM in each case.

Turning to `Cc1ccc(NC(=O)C[C@H](CCO)c2nnc(CCC3CCCCC3)n2C2CC2)c(C)c1` [Example F-385], the EC50 at mouse RORγ and at human RORγ was less than 3 µM in each case.

As for `Cc1ccc(NC(=O)[C@H]2CC(=O)N(C)[C@@H]2c2nnc(CCCC(C)(C)C)n2C2CC2)c(C)c1` [Example F-388], the EC50 at mouse RORγ and at human RORγ was less than 3 µM each time.

For `C=CC[C@@H](CC(=O)Nc1ccc(C)cc1C)c1nnc(CCCC(C)(C)C)n1C1CC1` [Example F-389], the EC50 on mouse RORγ and on human RORγ was less than 3 µM each time.

On to `CC(=O)N1C[C@H](C(=O)Nc2ccc(C)cc2C)[C@@H](c2nnc(CCCC(C)(C)C)n2CC(F)(F)F)C1` [Example F-392], for which the EC50 at mouse RORγ and at human RORγ was less than 3 µM in each case.
